Laboratory results: PMC12509006, “Synthesis and Evaluation of Pyridine-Based Antibacterial Agents that Inhibit ATP Synthase in Acinetobacter baumannii” (ACS Omega, 2025)
≈ marks a conversion by molar mass, not a printed value. Where two headings read alike, the source gives them in different places.

Assays:
[1] = target: T1, A. baumannii ATP synthase (Acinetobacter baumannii, UniProt A3M139); parameters: method as in PMID 40014581; settings: quinoline lead of the earlier series, comparison; read-out: IC50, AB ATP synthase (converted); cited from earlier work
T1 construct: endogenous electron transport chains of inverted inner membrane vesicles were energized with NADH; endogenous in cells; host or cells: inverted inner membrane vesicles prepared from A. baumannii ATCC 17978 cells

MDR AB BAA 1605 [2] = system: MDR AB BAA 1605; parameters: method as in PMID 40014581; settings: quinoline lead of the earlier series, Figure 1; cited from earlier work
HEK 293 cells = experiment: XTT cell viability cytotoxicity assay; settings: n = 3, 24 h treatment
AB BAA 1605 = experiment: Checkerboard assay with colistin sulfate, BAA 1605; settings: for MIC: Acinetobacter baumannii, BAA1605, read-out: MIC alone, AB BAA 1605; for fold change of MIC, AB BAA 1605: alone vs +colistin; for fractional inhibitory concentration index (FICI) / interaction with colistin, MDR AB BAA 1605: synergistic FICI ≤ 0.5, additivity FICI 0.5 < x < 1
Protocol: (§1) Synthesized compounds in DMSO (2–128 μg/mL, row G-A) were combined with colistin sulfate in ultra purified water (0.125–32 μg/mL, column 2–10) in a 96-well microtiter plate checkerboard assay against ATCC 17978 and BAA-1605 (MDR). Briefly, liquid cultures of bacteria were grown for 14–16 h by inoculating a single bacterial culture into 10 mL TSB. To each well 88 μL of TSB, 10 μL of bacteria culture, and 1 from each master plate was added (see layout below). Plates were covered and incubated at 37 °C for 12–18 h.

AB ATCC 17978 [3] = experiment: Checkerboard assay with colistin sulfate, ATCC 17978; settings: for MIC: Acinetobacter baumannii, ATCC17978, read-out: MIC alone, AB ATCC 17978; for fold change of MIC, AB ATCC 17978: alone vs +colistin; for fractional inhibitory concentration index (FICI) / interaction with colistin, AB ATCC 17978: synergistic FICI ≤ 0.5, additivity FICI 0.5 < x < 1
Protocol: as §1

MDR AB BAA 1605 [4] = experiment: Broth microdilution antimicrobial susceptibility assay, MDR isolate; settings: Acinetobacter baumannii, BAA1605, read-out: MIC, MDR AB BAA 1605
AB ATCC 17978 [5] = experiment: Broth microdilution antimicrobial susceptibility assay, susceptible isolate; settings: Acinetobacter baumannii, ATCC17978, read-out: MIC, AB ATCC 17978
[6] = target: T1, A. baumannii ATP synthase; experiment: AB ATP synthase inhibition: NADH-driven ATP synthesis in inverted inner membrane vesicles, luciferin/luciferase readout; type: biochemical; settings: for Hill coefficient (Hill slope): fit of ATP synthesis dose response curve
Protocol: Once synthesized, the pyridine compounds were tested for their ability to inhibit ATP synthase activity using our previously reported luciferin/luciferase assay. Briefly, endogenous electron transport chains of inverted inner membrane vesicles were energized with NADH to generate a proton gradient and to drive ATP synthesis. ATP was measured via luminescence from the luciferase-catalyzed oxidation of D-luciferin. Luminescence activities across increasing inhibitor concentrations were corrected for gradient independent background sources of ATP by comparison with a control containing the protonophore CCCP (carbonyl cyanide 3-chlorophenylhydrazone). The data were then fit to a four-parameter logistic dose–response curve, from which IC50 values and Hill coefficients were determined using a nonlinear least-squares regression.
A. baumannii (ATCC 17978) cells were grown in LB medium at 37 °C with shaking at 150 rpm and harvested by centrifugation in the late exponential phase of growth. Cells were resuspended in TMG buffer (50 mM Tris-HCl, pH 7.5, 5 mM MgCl2, 10% v/v glycerol) with 1 mM phenylmethanesulfonyl fluoride, 1 mM dithiothreitol, and a small amount of DNase and lysed by two passes through an Avestin B15 homogenizer at 19,000 psi. Lysate was cleared by centrifugation at 9000g and inverted membrane vesicles were collected from the supernatant by centrifugation at 169,000g. To reduce background ATP synthesis activity in AB vesicles, it was important to wash the membranes by resuspending in TMG buffer and centrifuging again at 169,000g. Washed pellets were resuspended in TMG buffer, and aliquots were stored at −80 °C. Once thawed, aliquots were not refrozen. Protein concentration in membrane vesicles was determined using a modified Lowry assay.
In vitro ATP synthesis activity of inverted inner membrane vesicles was measured as previously described. A reaction solution was prepared containing 5 mM tricine-KOH, pH 8.0, 50 mM KCl, 2.5 mM MgCl2, 0.1 mM adenosine diphosphate, 3.75 mM potassium phosphate, and 2.5 mM NADH and distributed into a 96-well plate. NADH-driven ATP synthesis was initiated by addition of inverted vesicles to 50 μg/mL and allowed to proceed for 10 min. The reaction was stopped by transferring an aliquot into 1% trichloroacetic acid. The stopped reaction was diluted 100-fold with deionized water and a sample was transferred to luciferase solution containing 25 mM tricine-NaOH, pH 7.8, 5 mM MgSO4, 0.1 mM EDTA, 0.1 mM NaN3, 150 μg/mL luciferin, and 7.5 μg/mL luciferase. Luminescence was measured in an opaque white 96-well plate using a BioTek H1 multimode plate reader. Each replicate set included a positive control containing DMSO with no compound and a negative control containing carbonyl cyanide 3-chlorophenylhydrazone (CCCP). Luminescence values were corrected for background by subtracting the CCCP control and normalized to the luminescence of the DMSO control. Normalized activity was fit using a variable-slope dose response curve. Nonlinear regression, including prediction of 95% confidence bands, and pairwise comparisons of fits using the F-test method were completed using GraphPad Prism10. Relativeactivity=1/1+(c/IC50)^Hillslope […]
Figure S1. ATP synthesis inhibition by all pyridine compounds in order of WSA compound number. ATP synthesis activities in inverted inner membrane vesicles prepared from AB cells were measured in the presence of 0.0625-64 µg/mL, corrected for background ATP, and normalized to activity with DMSO alone (see methods). For each plot, dots are normalized activities at each concentration (n≥3) on a log 2 scale, solid lines are fitted dose response curves, and dashed lines show the 95% confidence range of the fit. IC50

[7] = system: AB electron transport chain (ETC); experiment: AB electron transport chain inhibition: NADH-driven H+ pumping, ACMA fluorescence quenching; type: biochemical, Acinetobacter baumannii; settings: at 2 μg/mL compound
Protocol: To ensure that the pyridine analogs were selectively inhibiting AB ATP synthase, each analog was also evaluated for inhibition of the AB electron transport chain (ETC) at 2 μg/mL using a standard protocol. − Briefly, respiratory dehydrogenase complexes were energized with NADH to initiate redox-driven H^+ pumping into the vesicle lumen, which was in turn detected by the quenching of 9-amino-6-chloro-2-methoxyacradine fluorescence. Most compounds were tested at concentrations of 2 μg/mL to establish whether ETC inhibition occurred in the same range as ATP synthase inhibition (Figure S2).
NADH-driven proton pumping activity in inverted membrane vesicles was measured as previously described. Briefly, vesicles were diluted to 0.5 mg/mL in HMK buffer (50 mM HEPES, 2 mM MgCl2, 300 mM KCl, pH 7.5) with 0.3 μg/mL 9-amino-6-chloro-2-methoxyacridine (ACMA) and distributed into wells of a black 96-well plate containing various concentrations of inhibitors dissolved in DMSO. ACMA fluorescence (λex = 415 nm, λem = 485 nm) was monitored using a BioTek H1 multimode plate reader. Proton pumping was initiated by addition of NADH to 0.8 mM and terminated by addition of nigericin to 0.5 μg/mL. Activity was defined as the percent quenching of fluorescence, where fluorescence values are normalized to the maximum fluorescence following the addition of nigericin.
Figure S2. Inhibition of the AB electron transport chain (ETC) by compounds at 2 µg/mL.
ETC H+-pumping activity in inverted inner membrane vesicles prepared from AB cells was determined by the quenching of ACMA dye upon initiation with NADH. Addition of nigericin returned fluorescence to baseline, and relative fluorescence quenching is defined as the minimum fluorescence over the maximum fluorescence after addition of nigericin. Relative ETC inhibition (bars) is the fraction of fluorescence quenching decreased by the presence of 2 µg/mL compound.
(1 picture or pasted object on this page, not shown here)

[8] = inverted inner membrane vesicles, 0.0625-64 µg/mL, n≥3, Table S1, read-out: AB ATP Synthase Inhibition IC50 (converted)
[9] = Figure 2, read-out: IC50, AB ATP synthase inhibition (converted)

T1 sequence (A3M139 whole entry): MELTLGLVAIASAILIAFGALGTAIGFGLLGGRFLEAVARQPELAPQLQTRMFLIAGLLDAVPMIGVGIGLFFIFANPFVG

Structure (SMILES) | IC50 [1] | MDR AB MIC (MDR AB BAA 1605 [2]) | MIC, HEK 293 (cytotoxicity) (HEK 293 cells) | MIC (AB BAA 1605) | fold change of MIC, AB BAA 1605 (AB BAA 1605) | fractional inhibitory concentration index (FICI) / interaction with colistin, MDR AB BAA 1605 (AB BAA 1605) | MIC +colistin, AB BAA 1605 (AB BAA 1605; with 0.25 μg/mL colistin) | MIC (AB ATCC 17978 [3]) | fold change of MIC, AB ATCC 17978 (AB ATCC 17978 [3]) | fractional inhibitory concentration index (FICI) / interaction with colistin, AB ATCC 17978 (AB ATCC 17978 [3]) | MIC +colistin, AB ATCC 17978 (AB ATCC 17978 [3]; with 0.5 μg/mL colistin) | MIC (MDR AB BAA 1605 [4]) | MIC (AB ATCC 17978 [5]) | Hill coefficient (Hill slope) [6] | IC50 [6, 8] | ETC inhibition [7] | IC50 [6, 9] | MIC +colistin, AB BAA 1605 (AB BAA 1605; with 0.125 μg/mL colistin) | MIC +colistin, AB ATCC 17978 (AB ATCC 17978 [3]; with 0.25 μg/mL colistin)
CCN1CCC(CCNCc2cc3cc(-c4ccccc4)ccc3nc2SCc2ccccc2)CC1 [WSA 261, reference compound] | 1550 nM | 16 µg/mL | 8 µg/mL (≈ 16.1 µM) | 16 µg/mL | 2 | additivity | 8 (0.25 μg/mL Col) | 8 µg/mL | 2 | additivity | 4 (0.5 μg/mL Col) | 16 µg/mL (≈ 32.3 µM) | 8 µg/mL (≈ 16.1 µM) | – | – | – | – | – | –
CN1CCN(CCNCc2cc(-c3ccc(F)cc3)cnc2SCc2ccccc2)CC1 [WSA 273] | – | – | 4 µg/mL (≈ 8.88 µM) | – | – | – | – | – | – | – | – | 128 µg/mL (≈ 284 µM) | 32 µg/mL (≈ 71 µM) | -0.8 | 1890 nM | 40% | – | – | –
CN1CCN(CCNCc2cc(-c3ccc(F)cc3F)cnc2SCc2ccccc2)CC1 [WSA 274] | – | – | 4 µg/mL (≈ 8.54 µM) | – | – | – | – | – | – | – | – | 128 µg/mL (≈ 273 µM) | 32 µg/mL (≈ 68.3 µM) | -0.8 | 1710 nM | 40% | – | – | –
COc1ccc(-c2cnc(SCc3ccccc3)c(CNCCN3CCN(C)CC3)c2)cc1F [WSA 275] | – | – | 4 µg/mL (≈ 8.32 µM) | – | – | – | – | – | – | – | – | 128 µg/mL (≈ 266 µM) | 32 µg/mL (≈ 66.6 µM) | -0.7 | 499 nM | 40% | 416 nM | – | –
CN1CCN(CCNCc2cc(-c3ccc(N(C)C)cc3)cnc2SCc2ccccc2)CC1 [WSA 276] | – | – | 16 µg/mL (≈ 33.6 µM) | 32 µg/mL | 4 | synergy | 8 (0.25 μg/mL Col) | 16 µg/mL | 2 | – | 8 (0.5 μg/mL Col) | 32 µg/mL (≈ 67.3 µM) | 16 µg/mL (≈ 33.6 µM) | -0.6 | – | – | 673 nM | – | –
Cc1ccc(-c2cnc(SCc3ccccc3)c(CNCCN3CCN(C)CC3)c2)cc1 [WSA 280] | – | – | 16 µg/mL (≈ 35.8 µM) | 32 µg/mL | 2 | – | – | 16 µg/mL | 2 | – | 8 (0.5 μg/mL Col) | 32 µg/mL (≈ 71.6 µM) | 16 µg/mL (≈ 35.8 µM) | -0.8 | – | – | 1540 nM | 16 (0.125 μg/mL Col) | –
COc1ccc(-c2cnc(SCc3ccccc3)c(CNCCC3CCN(C4CCCC4)CC3)c2)cc1 [WSA 288] | – | – | 16 µg/mL (≈ 31 µM) | 32 µg/mL | 4 | synergy | 8 (0.25 μg/mL Col) | 16 µg/mL | 4 | ≤ 0.5 | – | 32 µg/mL (≈ 62 µM) | 16 µg/mL (≈ 31 µM) | -0.9 | – | – | 485 nM | – | –
Cc1ccc(-c2cnc(SCc3ccccc3)c(CNCCC3CCN(C4CCCC4)CC3)c2)cc1 [WSA 289] | – | – | 16 µg/mL (≈ 32 µM) | 32 µg/mL | 2 | – | – | 16 µg/mL | 4 | ≤ 0.5 | – | 32 µg/mL (≈ 64 µM) | 16 µg/mL (≈ 32 µM) | -0.7 | – | – | 480 nM | 16 (0.125 μg/mL Col) | –
Fc1ccc(-c2cnc(SCc3ccccc3)c(CNCc3ccc(CN4CCCC4)cc3)c2)cc1 [WSA 298] | – | – | 16 µg/mL (≈ 32.1 µM) | 32 µg/mL | 4 | synergy | 8 (0.25 μg/mL Col) | 16 µg/mL | 2 | – | – | 32 µg/mL (≈ 64.3 µM) | 16 µg/mL (≈ 32.1 µM) | -0.8 | – | – | 1310 nM | – | 8 (0.25 μg/mL Col)
